Here are results for four compounds from publication PMC12346557, “Design, Synthesis, and Anticancer Evaluation of New Small-Molecule EGFR Inhibitors Targeting NSCLC and Breast Cancer” (International Journal of Molecular Sciences, 2025).

In assay [1] the test system is MCF-7 cells. In words: Annexin V/ethidium homodimer-III apoptosis staining, MCF-7 cells. Conditions: IC50 concentration, 24 h, compared to control. Format: cell-based, human. As for the experimental part:
(§1) In this method, green staining indicates apoptotic cells, red indicates necrotic cells, and yellow represents cells in the late stages of apoptosis. This staining was analyzed using a fluorescence microscope. […] Furthermore, the apoptotic effect of B-2 on MCF-7 cells was assessed, showing that 4.3% of the cells underwent apoptosis after treatment, a result that was statistically significant (Figure 5b).
(§2) A549 and MCF-7 cells were treated with B-1 and B-2 at its IC50 concentration for 24 h. Following treatment, the cells were detached using 0.05% trypsin, washed twice with 1× binding buffer, and incubated in the dark at r.t. for 20 min with a staining solution containing 50 μL of 1× binding buffer, 4 μL of FITC-Annexin V solution, 4 μL of ethidium homodimer III solution, and 4 μL of Hoechst 33342 solution. After staining, the cells were washed again with 1× binding buffer, fixed in 2% paraformaldehyde, rinsed with PBS, and analyzed using the Biorevo Fluorescence BZ-9000 all-in-one fluorescence microscope (Keyence, Osaka, Japan).

The target of assay [2] is T1, recombinant human EGFR (amino acids 695 to C-terminus) (Homo sapiens, UniProt P00533).
T1 construct: recombinant human EGFR (amino acids 695 to C-terminus); purchased Promega Corporation V3831
T1 sequence (P00533 695-1210 limits assumed): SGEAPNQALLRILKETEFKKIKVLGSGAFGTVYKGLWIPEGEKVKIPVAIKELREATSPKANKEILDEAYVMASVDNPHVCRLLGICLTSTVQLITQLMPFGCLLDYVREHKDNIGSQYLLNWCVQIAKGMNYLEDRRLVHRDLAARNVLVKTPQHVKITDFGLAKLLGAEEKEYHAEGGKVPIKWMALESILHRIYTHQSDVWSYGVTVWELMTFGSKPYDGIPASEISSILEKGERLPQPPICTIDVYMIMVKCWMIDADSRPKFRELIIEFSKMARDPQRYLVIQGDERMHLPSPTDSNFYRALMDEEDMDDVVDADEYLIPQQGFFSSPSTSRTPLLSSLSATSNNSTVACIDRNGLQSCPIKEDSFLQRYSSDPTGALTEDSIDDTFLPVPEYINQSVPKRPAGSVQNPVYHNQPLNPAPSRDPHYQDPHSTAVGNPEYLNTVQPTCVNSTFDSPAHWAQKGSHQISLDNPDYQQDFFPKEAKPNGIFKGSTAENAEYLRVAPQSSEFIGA
Nature of the assay: EGFR Kinase Enzyme System / ADP-Glo kinase assay. It counts as biochemical. The protocol:
Overexpression or mutation of the EGFR gene markedly enhances cell growth and proliferation, particularly in NSCLC [41] and breast cancer, making EGFR a well-established and effective therapeutic target for these diseases. Due to their potent activity against NSCLC and breast cancer, B-1 and B-2 were further examined for their potential to inhibit EGFR.
The kinase profiling assay (EGFR Kinase Enzyme System, V3831) was conducted according to the manufacturer’s protocol (Promega Corporation, Madison, WI, USA), with minor modifications. In brief, 95 μL of 2.5× kinase buffer and 15 μL of 100 μM ATP solution were used to prepare dilutions of recombinant human EGFR (amino acids 695 to C-terminus) and its substrate (4:1 Glu:Tyr mixture). Reactions were set up in a 384-well plate, each containing 2 μL of kinase working stock, 2 μL of ATP/substrate working stock, and 1 μL of test compound solution or 5% DMSO as a control. After a 2 h incubation at r.t., kinase activity was measured using the ADP-Glo Kinase Assay (Promega), following the manufacturer’s instructions. Specifically, 5 μL of ADP-Glo Reagent was added to each well and incubated for 40 min, followed by 10 μL of Kinase Detection Reagent and a further 30 min incubation at r.t. Luminescence was recorded using the Infinite M1000 microplate reader (Tecan, Grödig, Austria) with an integration time of 0.5 to 1 s to assess the compounds’ kinase inhibitory effects in a dose-dependent manner.

Assay [3] deals with MCF-7 cells. Nature of the assay: MTT cytotoxicity assay, MCF-7 cells. Format: cell-based. Conditions: Homo sapiens, triplicate; for inhibition at 100 µM: MCF7, 100 µM, 72 h; for IC50: MCF7, 72 h culture, 1-100 µM.
Assay [4] concerns A549 cells. Nature of the assay: MTT cytotoxicity assay, A549 cells. It counts as cell-based, human. Conditions: triplicate; for reduction of A549 cell viability: 100 µM, 72 h; for IC50: Homo sapiens, A549, 72 h culture, 1-100 µM.
The subject of the next assay is Jurkat cells. In words: MTT cytotoxicity assay, Jurkat cells. Format: cell-based, human. Conditions: for IC50: Homo sapiens, Jurkat, MTT; for SI (Selectivity Index): IC50 for PBMC/IC50 for Jurkat cell line. The protocol:
A549 and MCF-7 human cancer cell lines were cultured in Dulbecco’s Modified Eagle’s Medium (DMEM) (Wako Pure Chemical Industries, Osaka, Japan) supplemented with 10% fetal bovine serum (FBS) (Equitech-Bio, Kerrville, TX, USA). […] All media were supplemented with 89 μg/mL of streptomycin (Meiji Seika Pharma, Tokyo, Japan). […] Cancer cells and PBMCs were seeded into 24-well and 96-well microtiter tissue culture plates (Iwaki, Asahi Glass Co., Chiba, Japan) at densities of 4 × 10^4 cells/mL and 5 × 10^5 cells/mL, respectively, and incubated for 72 h prior to drug treatment. The optimal seeding density for cytotoxicity assays was determined through preliminary testing. […] The cellular reduction MTT (Dojindo Molecular Technologies, Kumamoto, Japan) was assessed following established protocols from the literature, with slight modifications.

For a further assay, the system named is PBMCs. In words: MTT cytotoxicity assay, PBMCs (healthy). Format: cell-based. Conditions: PBMC. The protocol:
A549 and MCF-7 human cancer cell lines were cultured in Dulbecco’s Modified Eagle’s Medium (DMEM) (Wako Pure Chemical Industries, Osaka, Japan) supplemented with 10% fetal bovine serum (FBS) (Equitech-Bio, Kerrville, TX, USA). Jurkat cells, derived from human leukemia, were maintained in RPMI 1640 medium (Wako Pure Chemical Industries) with 10% FBS. PBMCs (Precision Bioservices, Frederick, MD, USA) were cultured in RPMI 1640 medium supplemented with 10% human AB serum (HS) (Gemini, Woodland, CA, USA). All media were supplemented with 89 μg/mL of streptomycin (Meiji Seika Pharma, Tokyo, Japan). Cells were incubated at 37 °C in a humidified atmosphere containing 95% air and 5% CO2. Cancer cells and PBMCs were seeded into 24-well and 96-well microtiter tissue culture plates (Iwaki, Asahi Glass Co., Chiba, Japan) at densities of 4 × 10^4 cells/mL and 5 × 10^5 cells/mL, respectively, and incubated for 72 h prior to drug treatment. The optimal seeding density for cytotoxicity assays was determined through preliminary testing. […] The cellular reduction MTT (Dojindo Molecular Technologies, Kumamoto, Japan) was assessed following established protocols from the literature, with slight modifications.

For assay [5], the system named is A549 cells. In words: Annexin V/ethidium homodimer-III apoptosis staining, A549 cells. Format: cell-based, human. Conditions: IC50 concentration, 24 h, compared to control. The protocol:
as §1, §2

With `Cc1ccc(C(=O)/C=C/c2cnc(-c3ccc(Cl)cc3)nc2)cc1` [Compound B-1, (E)-3-(2-(4-Chlorophenyl)pyrimidin-5-yl)-1-(4-methylphenyl)-2-propen-1-one], the “apoptosis in MCF-7 cells” value with MCF-7 cells [1] stood at 11.6%. The EGFR inhibition entry in assay [2] (1 μM) and in assay [2] (10 μM) was “no inhibitory effect” each time. In addition, the inhibition at 100 µM in the assay with MCF-7 cells [3] amounted to 73%. Besides, the IC50 with MCF-7 cells [3] was 6.1 ± 1.26 µM; in the assay on A549 cells [4] it was more than 100 µM; with Jurkat cells, 2.12 ± 0.48 µM; with PBMCs it was 121 ± 14.8 µM. In addition, the “reduction of A549 cell viability” value with A549 cells [4] worked out at 38%. Further, in the assay with Jurkat cells, the “SI (Selectivity Index)” value stood at 57.08.
For the compound `COc1ccc(C(=O)/C=C/c2cnc(-c3ccc(Cl)cc3)nc2)cc1` [Compound B-2, (E)-3-(2-(4-Chlorophenyl)pyrimidin-5-yl)-1-(4-methoxyphenyl)-2-propen-1-one], in the assay on MCF-7 cells [1], the “apoptosis in MCF-7 cells” value was determined as 4.3%. Further, the inhibition at 1 µM in assay [2] (1 μM) was 26%. Moreover, the inhibition at 10 µM in assay [2] (10 μM) turned out to be 66%. Further, in the assay with MCF-7 cells [3], the inhibition at 100 µM came out at 52% and the 50% inhibitory concentration (IC50) was 8.91 ± 1.38 µM. In addition, in the assay on A549 cells [4], the “reduction of A549 cell viability” value came out at 73% and the IC50 was 2.14 ± 0.83 µM. Besides, in the assay with Jurkat cells, inhibition was half-maximal at 2.96 ± 0.44 µM (IC50) and the “SI (Selectivity Index)” value amounted to 23.20. This compound gave an IC50 in the assay with PBMCs of 68.7 ± 9.82 µM. Moreover, the “apoptosis in A549 cells” value in the assay with A549 cells [5] was found to be 16.8%.
`Cc1ccc(C2=NN(C(N)=S)C(c3cnc(-c4ccc(Cl)cc4)nc3)C2)cc1` (centres unmarked) [Compound B-6, 3-(4-Methylphenyl)-5-(2-(4-chlorophenyl)pyrimidin-5-yl)-1-thiocarbamoyl-2-pyrazoline] returned an inhibition at 100 µM in the assay on MCF-7 cells [3] of 79%. The IC50 in the assay on MCF-7 cells [3] is 6.52 ± 0.97 µM; in the assay with A549 cells [4], more than 100 µM; with Jurkat cells it was 15.1 ± 2.85 µM; in the assay with PBMCs, 113 ± 15.1 µM. In addition, the “reduction of A549 cell viability” value in the assay with A549 cells [4] is 44%. Further, the “SI (Selectivity Index)” value in the assay on Jurkat cells turned out to be 7.49.
The compound `CS(=O)(=O)CCNCc1ccc(-c2ccc3ncnc(Nc4ccc(OCc5cccc(F)c5)c(Cl)c4)c3c2)o1` [Lapatinib, lapatinib, reference compound] came in with an IC50 in the assay with PBMCs of 11 ± 2.47 µM.
